Assay [1] addresses T1, human glycogen phosphorylase a (Homo sapiens, UniProt P06737).
T1 sequence (P06737 1-847): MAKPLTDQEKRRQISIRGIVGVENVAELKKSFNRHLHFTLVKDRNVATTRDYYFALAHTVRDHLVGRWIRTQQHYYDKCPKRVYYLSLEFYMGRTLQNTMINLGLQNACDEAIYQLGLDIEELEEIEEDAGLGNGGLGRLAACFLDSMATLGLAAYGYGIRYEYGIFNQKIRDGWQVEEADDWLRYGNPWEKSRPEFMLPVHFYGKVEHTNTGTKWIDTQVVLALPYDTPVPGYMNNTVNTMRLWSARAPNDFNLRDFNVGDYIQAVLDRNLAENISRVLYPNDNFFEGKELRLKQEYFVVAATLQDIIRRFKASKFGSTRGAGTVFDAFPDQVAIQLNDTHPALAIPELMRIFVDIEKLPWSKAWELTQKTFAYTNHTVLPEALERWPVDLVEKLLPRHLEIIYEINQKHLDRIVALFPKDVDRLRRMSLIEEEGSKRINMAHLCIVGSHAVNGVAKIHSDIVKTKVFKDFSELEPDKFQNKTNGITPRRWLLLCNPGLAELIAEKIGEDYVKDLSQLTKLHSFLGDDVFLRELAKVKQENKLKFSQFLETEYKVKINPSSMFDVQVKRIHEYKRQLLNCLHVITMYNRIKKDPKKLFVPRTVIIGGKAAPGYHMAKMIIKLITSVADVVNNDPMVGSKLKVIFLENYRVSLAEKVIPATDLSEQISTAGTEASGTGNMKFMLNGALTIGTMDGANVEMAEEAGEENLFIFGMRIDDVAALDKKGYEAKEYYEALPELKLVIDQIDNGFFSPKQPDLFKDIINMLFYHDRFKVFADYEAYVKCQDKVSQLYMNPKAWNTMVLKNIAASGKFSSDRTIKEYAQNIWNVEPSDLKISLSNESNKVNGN
Put plainly: Glycogen phosphorylase a activity test. As to conditions: 10 μM test substance, GPa measured in reverse direction (glycogen synthesis from glucose 1-phosphate). The assay is classed as biochemical. The procedure: Glycogen Phophorylase a Activity Test
The effect of compounds on the activity of the active form of glycogen phosphorylase (GPa) was measured in the reverse direction by monitoring the synthesis of glycogen from glucose 1-phosphate by determining the release of inorganic phosphate. All reactions were carried out as duplicate determinations in 96-well microtiter plates (half area plates, Costar No. 3696), and the change in absorption as a consequence of the formation of the reaction product was measured at the wavelength specified below in a Multiskan Ascent Elisa Reader (Lab Systems, Finland).
In order to measure the GPa enzyme activity in the reverse direction, the conversion of glucose 1-phosphate to glycogen and inorganic phosphate was measured by the general method of Engers et al. (Engers HD, Shechosky S, Madsen NB, Can J Biochem 1970 July;48(7):746–754) with the following modifications: human glycogen phosphorylase a (for example containing 0.76 mg of protein/ml (Aventis Pharma Deutschland GmbH), dissolved in buffer solution E (25 mM P-glycerophosphate, pH 7.0, 1 mM EDTA and 1 mM dithiotreitol) was diluted to a concentration of 10 μg of protein/ml with buffer T (50 mM Hepes, pH 7.0, 100 mM KCl, 2.5 mM EDTA, 2.5 mM MgCl2.6H2O) and addition of 5 mg/ml of glycogen. Test substances were prepared as a 10 mM solution in DMSO and diluted to 50 μM with buffer solution T. To 10 μl of this solution were added 10 μl of 37.5 mM glucose dissolved in buffer solution T and 5 mg/ml of glycogen, and also 10 μl of a solution of human glycogen phosphorylase a (10 μg of protein/ml) and 20 μl of 2.5 mM glucose 1-phosphate. The base value of the activity of glycogen phosphorylase a in the absence of test substance was determined by adding 10 μl of buffer solution T (0.1% DMSO). The mixture was incubated at room temperature for 40 minutes and the released inorganic phosphate was determined by means of the general method of Drueckes et al. (Drueckes P, Schinzel R, Palm D, Anal Biochem 1995 Sep. 1;230(1):173–177) with the following modifications: 50 μl of a stop solution of 7.3 mM of ammonium molybdate, 10.9 mM of zinc acetate, 3.6% of ascorbic acid, 0.9% of SDS are added to 50 μl of the enzyme mixture. After 60 minutes of incubation at 45° C., the absorption was measured at 820 nm. To determine the background absorption, the stop solution was added immediately after the addition of the glucose 1-phosphate solution in a separate reaction.

Assay [2] addresses T1, human glycogen phosphorylase a. Put plainly: Glycogen phosphorylase a activity test. It is filed as biochemical. The settings on record: read-out: inhibition at a concentration of 100 μM.

SMILES strings stand for the structures.

In general, % Inhibition refers to the relative decrease from the control value, in per cent.

For the compound `CCOC(=O)CCC(=O)Nc1ccc(OC)c(NC(=O)NC(=O)c2cc(F)c(F)cc2Cl)c1` [Example 48], the “% Inhibition at 10 μM” value in assay [1] was determined as 97%.

`COc1ccc(NC(=O)c2cccs2)cc1NC(=O)NC(=O)c1cc(F)c(F)cc1Cl` [Example 29]: in assay [1], the “% Inhibition at 10 μM” value came out at 98%.

As for `COc1ccc(NC(=O)c2ccccc2OC)cc1NC(=O)NC(=O)c1cc(F)c(F)cc1Cl` [Example 34], in assay [1], the “% Inhibition at 10 μM” value came to 97%.

Regarding `COc1ccc(NC(C)=O)cc1NC(=O)NC(=O)c1ccc(Cl)cc1Cl` [Example 82], the “% Inhibition at 10 μM” value in assay [1] is 102%.

As for `O=C(O)CCC(=O)Nc1ccc(Cl)c(NC(=O)NC(=O)c2ccc(Cl)cc2Cl)c1` [Example 81], the “% Inhibition at 10 μM” value in assay [1] was 97%.

In the case of `O=C(O)C(=O)Nc1ccccc1C(=O)O` [Comparative Example A, reference compound], the “% Inhibition at 10 μM” value in assay [1] is “no inhibition”. Further, in assay [2], the inhibition at 100 µM amounted to 11%.

Turning to `CC(=O)Nc1ccc(N(C)C)c(NC(=O)NC(=O)c2cc(F)c(F)cc2Cl)c1` [Example 71], in assay [1], the “% Inhibition at 10 μM” value worked out at 97%.

For the compound `O=C(O)CCC(=O)Nc1cccc(NC(=O)NC(=O)c2ccc(Cl)cc2Cl)c1` [Example 78], the “% Inhibition at 10 μM” value in assay [1] was determined as 86%.

For `O=C(O)CC(=O)Nc1ccc(OC(F)(F)F)c(NC(=O)NC(=O)c2cc(F)c(F)cc2Cl)c1` [Example 69], the “% Inhibition at 10 μM” value in assay [1] was determined as 100%.

Regarding `COc1ccc(NC(=O)CCN)cc1NC(=O)NC(=O)c1cc(F)c(F)cc1Cl` [Example 55], in assay [1], the “% Inhibition at 10 μM” value is 100%.

Regarding `COc1ccc(NC(=O)C2CCCC2)cc1NC(=O)NC(=O)c1cc(F)c(F)cc1Cl` [Example 33], the “% Inhibition at 10 μM” value in assay [1] stood at 96%.

Consider `O=C(O)CC(=O)Nc1ccc(N2CCCC2)c(NC(=O)NC(=O)c2cc(F)c(F)cc2Cl)c1` [Example 77], for which the “% Inhibition at 10 μM” value in assay [1] is on record as 98%.

In the case of `COc1cc(C)c(NC(=O)NC(=O)c2cc(F)c(F)cc2Cl)cc1NC(=O)CC(=O)O` [Example 11], the “% Inhibition at 10 μM” value in assay [1] is on record as 96%.

With `COc1ccc(NC(=O)c2cc3cc(Cl)ccc3o2)cc1NC(=O)NC(=O)c1cc(F)c(F)cc1Cl` [Example 39], in assay [1], the “% Inhibition at 10 μM” value was found to be 101%.

As for `COc1ccc(NC(=O)C(C)C)cc1NC(=O)NC(=O)c1cc(F)c(F)cc1Cl` [Example 50], the “% Inhibition at 10 μM” value in assay [1] (10 µM) turned out to be 94%.

As to `CC(=O)Nc1ccc(OC(F)(F)F)c(NC(=O)NC(=O)c2cc(F)c(F)cc2Cl)c1` [Example 64, N-{3-[3-(2-Chloro-4,5-difluorobenzoyl)ureido]-4-trifluoromethoxyphenyl}acetamide], the inhibition at 10 µM in assay [1] came to 101%.

As for `COc1ccc(NC(=O)C(C)C)cc1NC(=O)NC(=O)c1cc(F)c(F)cc1Cl` [Example 43], the “% Inhibition at 10 μM” value in assay [1] (10 µM) was found to be 98%.

`COc1ccc2oc(C(=O)Nc3ccc(OC)c(NC(=O)NC(=O)c4cc(F)c(F)cc4Cl)c3)cc2c1` [Example 38]: in assay [1], the “% Inhibition at 10 μM” value was 102%.

For the compound `COc1cc(C)c(NC(=O)NC(=O)c2cc(F)c(F)cc2Cl)cc1NC(=O)C(=O)O` [Example 13], the “% Inhibition at 10 μM” value in assay [1] stood at 94%.

For `O=C(O)CCC(=O)Nc1ccc(Cl)c(NC(=O)NC(=O)c2cc(F)c(F)cc2Cl)c1` [Example 84], in assay [1], the “% Inhibition at 10 μM” value came to 100%.

`NCCCC(=O)Nc1cccc(NC(=O)NC(=O)c2ccc(Cl)cc2Cl)c1` [Example 79]: the “% Inhibition at 10 μM” value in assay [1] is 80%.

Turning to `CC(=O)Nc1ccc(Cl)c(NC(=O)NC(=O)c2ccc(Cl)cc2Cl)c1.O=C(O)C(F)(F)F` [Example 80], the “% Inhibition at 10 μM” value in assay [1] worked out at 98%.

Regarding `CC=CC(=O)Nc1ccc(OC)c(NC(=O)NC(=O)c2cc(F)c(F)cc2Cl)c1` [Example 35], in assay [1], the “% Inhibition at 10 μM” value is given as 99%.

Consider `COc1ccc(NC(=O)CO)cc1NC(=O)NC(=O)c1cc(F)c(F)cc1Cl` [Example 62], for which, in assay [1], the “% Inhibition at 10 μM” value is reported as 101%.

Consider `COC(=O)CC(=O)Nc1ccc(OC(F)(F)F)c(NC(=O)NC(=O)c2cc(F)c(F)cc2Cl)c1` [Example 66], for which, in assay [1], the “% Inhibition at 10 μM” value is recorded as 100%.

Consider `COC(=O)CC(=O)Nc1ccc(N2CCCC2)c(NC(=O)NC(=O)c2cc(F)c(F)cc2Cl)c1` [Example 75], for which the “% Inhibition at 10 μM” value in assay [1] is recorded as 100%.

`COc1cc(C(=O)O)c(NC(=O)CC(=O)O)cc1NC(=O)NC(=O)c1cc(F)c(F)cc1Cl` [Example 22]: the “% Inhibition at 10 μM” value in assay [1] is 96%.

Regarding `COC(=O)C(=O)Nc1ccc(OC(F)(F)F)c(NC(=O)NC(=O)c2cc(F)c(F)cc2Cl)c1` [Example 65], in assay [1], the “% Inhibition at 10 μM” value was found to be 98%.

As for `COc1ccc(NC(=O)c2ccc(F)cc2)cc1NC(=O)NC(=O)c1cc(F)c(F)cc1Cl` [Example 40], in assay [1], the “% Inhibition at 10 μM” value amounted to 98%.

As for `COC(=O)C(=O)Nc1ccc(Cl)c(NC(=O)NC(=O)c2cc(F)c(F)cc2Cl)c1` [Example 87], the “% Inhibition at 10 μM” value in assay [1] stood at 96%.

In the case of `C#CCC(=O)Nc1ccc(OC)c(NC(=O)NC(=O)c2cc(F)c(F)cc2Cl)c1` [Example 60], the “% Inhibition at 10 μM” value in assay [1] is on record as 103%.

For `COc1ccc(NC(=O)CCC(=O)O)cc1NC(=O)NC(=O)c1cc(F)c(F)cc1Cl` [Example 7], the “% Inhibition at 10 μM” value in assay [1] turned out to be 100%.

With `COc1ccc(NC(C)=O)cc1NC(=O)NC(=O)c1cc(F)c(F)cc1Cl` [Example 1, N-{3-[3-(2-Chloro-4,5-difluorobenzoyl)ureido]-4-methoxyphenyl}acetamide], in assay [1], the inhibition at 10 µM came to 99%.

On to `COC(=O)CC(=O)Nc1ccc(N(C)C)c(NC(=O)NC(=O)c2cc(F)c(F)cc2Cl)c1` [Example 74], for which the “% Inhibition at 10 μM” value in assay [1] is 98%.

Turning to `O=C(NC(=O)c1cc(F)c(F)cc1Cl)Nc1cc(NC(=O)C(=O)O)ccc1Cl` [Example 88], the “% Inhibition at 10 μM” value in assay [1] worked out at 97%.

Take `COC(=O)CC(=O)Nc1cc(NC(=O)NC(=O)c2cc(F)c(F)cc2Cl)c(C)cc1OC` [Example 10]: in assay [1], the “% Inhibition at 10 μM” value was 95%.

The record behind these values is patent publication US7179941B2, “Carbonylamino-substituted acyl phenyl urea derivatives, process for their preparation and their use” (Sanofi-Aventis Deutschland GmbH, priority 2003, dated 2007).
